Assay results reported in ChEMBL document CHEMBL1136189, “Thiourea inhibitors of herpes viruses. Part 1: bis-(aryl)thiourea inhibitors of CMV” (Bioorg Med Chem Lett, 2003).
Values after ≈ are worked out from the molar mass of the structure shown.

Assays:
Human betaherpesvirus 5 = test: Inhibitory concentration against human cytomegalovirus (CMV) in cultured human foreskin fibroblast (HFF) cells; type: functional, organism-based; settings: Human betaherpesvirus 5, HFF
Human alphaherpesvirus 2 = test: Inhibitory concentration against Herpes simplex virus (HSV); type: functional, organism-based
Human alphaherpesvirus 3 = test: Inhibitory concentration against Varicella zoster virus (VZV); type: functional, organism-based
[1] = MTS cellular toxicity was determined; type: functional

Structure (SMILES) | IC50 (Human betaherpesvirus 5) [µg/mL] | IC50 (Human alphaherpesvirus 2) [µg/mL] | IC50 (Human alphaherpesvirus 3) [µg/mL] | Activity [1] [µg/mL]
O=C(Nc1ccc(/N=C(\S)Nc2cccc(C(F)(F)F)c2)cc1)c1ccco1 | 0.06 (≈ 0.148 µM) | > 10 | > 10 | –
O=C(Nc1ccc(/N=C(\S)Nc2cc(C(F)(F)F)cc(C(F)(F)F)c2)cc1)c1cocn1 | 0.03 (≈ 0.0632 µM) | > 10 | > 10 | –
O=C(Nc1ccc(/N=C(\S)Nc2ccc(C(F)(F)F)c(Cl)c2)cc1)c1cocn1 | 0.02 (≈ 0.0454 µM) | > 10 | > 10 | –
O=C(Nc1ccc(/N=C(\S)Nc2cc(C(F)(F)F)cc(C(F)(F)F)c2)cc1)c1cscn1 | 0.008 (≈ 0.0163 µM) | > 10 | > 10 | –
O=C(Nc1ccc(NC(=S)Nc2ccccc2)cc1)c1ccco1 | 0.3 (≈ 0.889 µM) | > 10 | > 10 | –
COc1cc(OC)c(N/C(S)=N/c2ccc(NC(=O)c3ccco3)cc2)cc1Cl | 0.2 (≈ 0.463 µM) | > 10 | > 10 | >10
COc1cc(OC)c(N/C(S)=N/c2ccc(NC(=O)c3ccco3)cc2C#N)cc1Cl | > 10 | > 10 | > 10 | >10
CCC(=O)Nc1ccc(N/C(S)=N/c2cc(Cl)c(OC)cc2OC)cc1 | – | 3 (≈ 7.62 µM) | > 10 | >10
COc1cc(OC)c(N/C(S)=N/c2cc(OC)c(NC(=O)c3ccco3)cc2OC)cc1Cl | > 10 | > 10 | 4 (≈ 8.13 µM) | –
O=C(Nc1ccc(/N=C(\S)Nc2ccc(F)c(Cl)c2)cc1)c1ccco1 | 0.06 (≈ 0.154 µM) | > 10 | > 10 | –
COc1cc(OC)c(N/C(S)=N/c2ccc(NC(=O)c3ccco3)cc2C(F)(F)F)cc1Cl | 2 (≈ 4 µM) | 2.5 (≈ 5 µM) | > 10 | >10
COc1cc(OC)c(N/C(S)=N/c2ccc(NC(=O)c3ccco3)cc2C)cc1Cl | 0.6 (≈ 1.35 µM) | > 10 | > 10 | –
COc1cc(OC)c(N/C(S)=N/c2ccc(NC(=O)c3ccccc3)cc2)cc1Cl | 4 (≈ 9.05 µM) | 0.3 (≈ 0.679 µM) | > 10 | >10
COc1cc(OC)c(N/C(S)=N/c2ccc(NC(C)=O)cc2)cc1Cl | 45 (≈ 118 µM) | 3 (≈ 7.9 µM) | > 10 | >10
COc1cc(OC)c(N/C(S)=N/c2ccc(NC(=O)c3ccco3)c(C)c2)cc1Cl | > 10 | > 10 | > 10 | >10
O=C(Nc1ccc(/N=C(\S)Nc2ccc(C(F)(F)F)c(Cl)c2)cc1)c1ccccn1 | > 10 | > 10 | > 10 | –
Cc1ccc(N/C(S)=N/c2ccc(NC(=O)c3ccco3)cc2)cc1Cl | 0.09 (≈ 0.233 µM) | > 10 | > 10 | –
Cc1cccc(N/C(S)=N/c2ccc(NC(=O)c3ccco3)cc2)c1 | 0.06 (≈ 0.171 µM) | > 10 | > 10 | –
O=C(Nc1ccc(/N=C(\S)Nc2cc(C(F)(F)F)cc(C(F)(F)F)c2)cc1)c1csnn1 | 0.02 (≈ 0.0407 µM) | > 10 | > 10 | –
COc1cc(OC)c(N/C(S)=N/c2ccc(NC(=O)c3ccco3)c(OC)c2)cc1Cl | > 10 | 8 (≈ 17.3 µM) | > 10 | –
O=C(Nc1ccc(/N=C(\S)Nc2cc(C(F)(F)F)cc(C(F)(F)F)c2)cc1)c1ccco1 | 0.04 (≈ 0.0845 µM) | > 10 | 7 (≈ 14.8 µM) | –
O=C(Nc1ccc(/N=C(\S)Nc2ccc(Cl)c(C(F)(F)F)c2)cc1)c1ccco1 | 0.03 (≈ 0.0682 µM) | > 10 | > 10 | –
O=C(Nc1ccc(/N=C(\S)Nc2ccc(C(F)(F)F)c(Cl)c2)cc1)c1cscn1 | 0.006 (≈ 0.0131 µM) | > 10 | > 10 | –
